Experiments:
[1] = crystallization / phase stability of fatty acids in the MCT composition; format: physicochemical
Procedure: The first issue was one of phase stability, i.e., with higher levels of C12 fatty acid, the fatty acid precipitates out of the MCT matrix when essential oils are also present, leaving just the essential oils and the MCT carrier in solution.
The MCT as a dilutant at high enough percentage by weight in the composition prevents undesirable crystallization down to about 45-50° F. (with only C10 fatty acid, the composition is stable to about 12% concentration in the formula and with only C12 fatty acid, the composition is stable up to about 7%). It was also determined that the combination of either C8 or C10 with the C12 in a ratio of 1:4 or greater results in no undesirable crystallization.
A 100% substitution of the MCT with these yielded a clear product at cooler temperatures. […] Other co-solvents recognized by the present disclosure as useful in preventing crystallization of fatty acids from the composition include alcohols such as methanol, ethanol, propanol, and isopropanol. However, as indicated earlier, these alcohols are drying to the skin and should be avoided, if at all possible, in skin-care type repellent formulas.

[2] = test system: mosquito, biting fly, tick; experiment: repellent behaviour of C12 fatty acid on treated skin; format: in vivo; details: insect will land but not bite on treated skin
[3] = 100% substitution of the MCT, cooler temperatures

effect of co-solvent on crystallization when added to the composition [1] | appearance after substitution of the MCT by the co-solvent [1, 3] | concentration in the formula up to which the composition is stable (no crystallization) ([1]; only this fatty acid, in MCT as dilutant) | solubility in MCTs ([1]; without essential oils) | SMILES | appearance after substitution of the MCT by the co-solvent ([1]; 25% substitution level) | type of repellency [2]
limit crystallization | clear product | – | – | CCCCCCCCCCCCCC(=O)OC(C)C [isopropyl myristate] | significant benefit but not to the total clarity | –
limit crystallization | clear product | – | – | CCCCCCCCCC(=O)OC [methyl decanoate] | significant benefit but not to the total clarity | –
– | – | about 7% | completely soluble | CCCCCCCCCCCC(=O)O [C12 fatty acid, lauric acid] | – | close-proximity or contact repellent

Source: patent US20230134377A1, “INSECT-REPELLENT PERSONAL-CARE COMPOSITION” (priority 2021, published 2023)
